Reference: ChEMBL document CHEMBL1201862, “PubChem BioAssay data set” (2004)
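In this assay, cells in 96-well plates receive the compound at five concentrations for 48 hours. Endpoints are linearly interpolated between the surrounding concentrations. At the GI50, growth is halved.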 Activity calls are given as the source filed them. Rule as the data show it: active = GI50 up to about 1.1 µM and inactive = higher.

Key:
Assay in all cases: NCI-60 cell line screen, 48 h
NCI-H23 = system: NCI-H23
SR = system: SR
IGROV-1 = system: IGROV-1
UACC-257 = system: UACC-257
COLO 205 = system: COLO 205
HL-60 = system: HL-60
Hs-578T = system: Hs-578T
MOLT-4 = system: MOLT-4
EKVX = system: EKVX
OVCAR-8 = system: OVCAR-8
SNB-75 = system: SNB-75
Malme-3M = system: Malme-3M
HCT-116 = system: HCT-116
TK-10 = system: TK-10
NCI-H522 = system: NCI-H522
MDA-MB-435 = system: MDA-MB-435
OVCAR-5 = system: OVCAR-5
SW-620 = system: SW-620
NCI/ADR-RES = system: NCI/ADR-RES
KM12 = system: KM12
NCI-H226 = system: NCI-H226
SK-MEL-2 = system: SK-MEL-2
786-0 = system: 786-0
HOP-92 = system: HOP-92
UO-31 = system: UO-31
CAKI-1 = system: CAKI-1
SF-539 = system: SF-539
HCT-15 = system: HCT-15
DU-145 = system: DU-145
T47D = system: T47D
PC-3 = system: PC-3
A549 = system: A549
U-251 = system: U-251
SNB-19 = system: SNB-19
SN12C = system: SN12C
NCI-H460 = system: NCI-H460
HCC 2998 = system: HCC 2998
MDA-N = system: MDA-N
SF-295 = system: SF-295
SK-MEL-28 = system: SK-MEL-28
MDA-MB-231 = system: MDA-MB-231
A498 = system: A498
SF-268 = system: SF-268
OVCAR-3 = system: OVCAR-3
SK-OV-3 = system: SK-OV-3
RPMI-8226 = system: RPMI-8226
HOP-62 = system: HOP-62
CCRF-CEM = system: CCRF-CEM
SK-MEL-5 = system: SK-MEL-5
MCF7 = system: MCF7
RXF 393 = system: RXF 393
LOX IMVI = system: LOX IMVI
M14 = system: M14
K562 = system: K562
ACHN = system: ACHN
UACC-62 = system: UACC-62
HT-29 = system: HT-29
OVCAR-4 = system: OVCAR-4
BT-549 = system: BT-549

Measured: GI50

C=CC1CN2CCC1CC2C(O)c1ccnc2ccc(OC)cc12 (stereo not drawn)
inactive: NCI-H23 89.1 µM

O=C1C=C(Nc2ccc(Br)cc2)c2ccccc2/C1=N/O
3.14 µM: HCT-15
inactive: SR 9.38 µM | IGROV-1 32.6 µM | UACC-257 1.58 µM | COLO 205 4.78 µM | HL-60 13.2 µM | Hs-578T 3.2 µM | MOLT-4 11.7 µM | NCI-H23 1.28 µM | EKVX 35.5 µM | OVCAR-8 12.1 µM | SNB-75 2.75 µM | Malme-3M 10.2 µM | HCT-116 11.4 µM | TK-10 9.1 µM | NCI-H522 28.1 µM | MDA-MB-435 1.83 µM | OVCAR-5 5.18 µM | SW-620 4.32 µM | NCI/ADR-RES 8.67 µM | KM12 2.5 µM | NCI-H226 2.32 µM | SK-MEL-2 1.5 µM | 786-0 9.73 µM | HOP-92 17.6 µM | UO-31 6.64 µM | CAKI-1 6.52 µM | SF-539 9.48 µM | DU-145 1.77 µM | T47D 13.6 µM | PC-3 8.47 µM | A549 1.98 µM | U-251 4.93 µM | SNB-19 2.5 µM | SN12C 10.6 µM | NCI-H460 2.3 µM | HCC 2998 3.84 µM | MDA-N 1.89 µM | SF-295 1.54 µM | SK-MEL-28 2 µM | MDA-MB-231 9.75 µM | A498 5.81 µM | SF-268 5.6 µM | OVCAR-3 7.35 µM | SK-OV-3 12.9 µM | RPMI-8226 11.6 µM | HOP-62 2.78 µM | CCRF-CEM 23.6 µM | MCF7 4.16 µM | RXF 393 16.4 µM | LOX IMVI 2.18 µM | M14 1.63 µM | K562 8.71 µM | ACHN 7.31 µM | UACC-62 1.73 µM | HT-29 12.1 µM | OVCAR-4 6.84 µM
active: SK-MEL-5 0.989 µM

CCOC(=O)/C=C1/Nc2cc(F)c(F)cc2NC1=O
> 100 µM: HCT-15
inactive: UACC-257 > 100 µM | COLO 205 > 100 µM | HL-60 > 100 µM | Hs-578T > 100 µM | MOLT-4 > 100 µM | NCI-H23 > 100 µM | EKVX > 100 µM | OVCAR-8 > 100 µM | SNB-75 > 100 µM | Malme-3M > 100 µM | HCT-116 > 100 µM | TK-10 > 100 µM | MDA-MB-435 > 100 µM | OVCAR-5 > 100 µM | SW-620 > 100 µM | NCI/ADR-RES > 100 µM | BT-549 > 100 µM | KM12 > 100 µM | NCI-H226 > 100 µM | SK-MEL-2 > 100 µM | 786-0 > 100 µM | HOP-92 > 100 µM | UO-31 > 100 µM | CAKI-1 > 100 µM | SF-539 > 100 µM | DU-145 > 100 µM | PC-3 > 100 µM | A549 > 100 µM | U-251 > 100 µM | SNB-19 > 100 µM | SN12C > 100 µM | NCI-H460 > 100 µM | HCC 2998 > 100 µM | MDA-N > 100 µM | SF-295 > 100 µM | SK-MEL-28 > 100 µM | MDA-MB-231 > 100 µM | SF-268 > 100 µM | OVCAR-3 > 100 µM | SK-OV-3 > 100 µM | RPMI-8226 > 100 µM | HOP-62 > 100 µM | CCRF-CEM > 100 µM | SK-MEL-5 > 100 µM | MCF7 > 100 µM | RXF 393 > 100 µM | LOX IMVI > 100 µM | M14 > 100 µM | K562 > 100 µM | ACHN > 100 µM | UACC-62 > 100 µM | HT-29 > 100 µM | OVCAR-4 > 100 µM
